Source: patent publication US7964625B2, “Antibiotics comprising bis(1-aryl-5-tetrazoly1)methane derivatives” (Nederlandse Organisatie Voor …, priority 2005, dated 2011)
Values after ≈ are worked out from the molar mass of the structure shown. Read-outs that look alike come from different tables or passages of the source. One block for each compound: values may come before it.

Legend:
S. aureus strains = assay: MIC test on multiple strains of S. aureus; format: cell-based; conditions: for Range MIC (highest): highest value found; for Range MIC (lowest): lowest value found
Description: (§1) MIC test were performed according to standard methodology: M7-A6-“Methods for Dilution Antimicrobial Susceptibility Tests for Bacteria That Grow Aerobically”; Approved Standard, Sixth Edition Clinical and Laboratory Standards Institute 2005 (CLSI/formerly NCCLS).

S. aureus MW2 = assay: MIC test, single strain S. aureus MW2; format: cell-based; conditions: for MIC S. aureus MW2: Table II; for MIC: Staphylococcus aureus, MW2, Table II
Description: as §1
(§2) Table II lists the results of 6 different compounds according to Formula (I) on single strains of S. aureus as MIC values expressed in micrograms per milliliter.

S. aureus N315 = assay: MIC test, single strain S. aureus N315; format: cell-based; conditions: for MIC S. aureus N315: Table II; for MIC: Staphylococcus aureus, N315, Table II
Description: as §1, §2

S. aureus ATCC 29213 = assay: MIC test, single strain S. aureus ATCC 29213; format: cell-based; conditions: for MIC: Staphylococcus aureus
Description: as §1, §2
(§3) Table IV lists additional MIC data on single strains of S. aureus as MIC values expressed in micrograms per milliliter. Again BAS 00160352 (NewCo003) is tested, next to its monochloric pendant (NewCo0030) and several of the new compounds of Table I. Some of the experiments were carried out in duplicate. Strains TTC03.0236 and TTC03.0239 are two MRSA strains obtained from the Utrecht University Medical Centre (UMC 01-8756/140 and UMC 03-543155, respectively). Several of the new compounds of Table I appear to be at least as active as NewCo003.

MRSA 2141 = assay: Local thigh muscle infection with MRSA 2141 in the mouse, CFU outgrowth; format: in vivo; conditions: for Reduction of MRSA 2141 CFU in thigh muscle: 24 hours after dosing, vs vehicle
Description: The purpose of this study was to investigate the antibiotic efficacy of different doses of compound BAS00160352 (NewCo003) against a local infection with MRSA 2141 in the mouse. Thirty mice were treated intravenously with 0.05, 0.5 or 5.0 mg/kg body weight, respectively. Outgrowth of the infection was used to establish drug efficacy.
For each administered dose the appropriate stock solution was made as a 1 ml aliquot of the test substance in the vehicle (DMSO). The stock solutions were stored at 2-8° C. for 16 hours.
(§4) The test substances were administered as a solution in dimethylsulfoxide (DMSO). The test substance was administered as 20 μl injections per mouse at all dose levels. Vancomycin was used as positive control and injected intravenously as a 10 mg/ml solution in DMSO (20 μl per mouse). Fresh dilutions of the test substance in vehicle were provided, stored at 2-8° C., and used within 18 hours after preparation. Shortly before injection the test substance was warmed to room temperature.
The mice were injected i.m. with 22E05 MRSA 2141 bacteria, strain 2141 in the right thigh muscle, followed one day later by an i.v. injection of the test compound, vancomycin or vehicle in the tail vein. 24 hours later mice were sacrificed, blood was collected by heart puncture and the right thigh muscle was removed. Plasma was prepared from blood samples and stored at −80°±10° C. for possible future analysis. Thigh muscles were weighted and homogenized using an Ultra-Turrax® and dilutions of the homogenate were prepared in saline. Limiting dilutions were plated onto agar plates and two days later the number of MRSA 2141 CFU were determined for each individual mouse as an indication of bactericidal activity of the compound. Additionally, tests were performed to determine if the bacteria used are still oxacillin resistant Staphylococcus aureus. This was done before injection and on pooled thigh muscle isolates per group. […] In vivo antibiotic activity is determined by a CFU reduction of >90% (1 log reduction) in comparison to the negative control (vehicle only). […]

[1] = Observation for adverse side effects after i.v. injection in infected mice; format: in vivo; conditions: mouse, i.v., 0.05, 0.5 or 5.0 mg/kg in DMSO
Description: as §4
The mice were injected i.m. with 22E05 MRSA 2141 bacteria, strain 2141 in the right thigh muscle, followed one day later by an i.v. injection of the test compound, vancomycin or vehicle in the tail vein. 24 hours later mice were sacrificed, blood was collected by heart puncture and the right thigh muscle was removed. Plasma was prepared from blood samples and stored at −80°±10° C. for possible future analysis. Thigh muscles were weighted and homogenized using an Ultra-Turrax® and dilutions of the homogenate were prepared in saline. Limiting dilutions were plated onto agar plates and two days later the number of MRSA 2141 CFU were determined for each individual mouse as an indication of bactericidal activity of the compound. […] In vivo antibiotic activity is determined by a CFU reduction of >90% (1 log reduction) in comparison to the negative control (vehicle only).

S. aureus TTC03.0239 = assay: MIC test, single strain S. aureus TTC03.0239 (MRSA); format: cell-based; conditions: Table IV, MRSA strain UMC 03-543155, some in duplicate
Description: as §1, §3

S. aureus TTC03.0236 = assay: MIC test, single strain S. aureus TTC03.0236 (MRSA); format: cell-based; conditions: Table IV, MRSA strain UMC 01-8756/140, some in duplicate
Description: as §1, §3

[2] = Staphylococcus aureus, 60 tested S. aureus strains, read-out: MIC 50
[3] = Staphylococcus aureus, 60 tested S. aureus strains, read-out: MIC 90
[4] = ATCC29213, Table II, single strain, read-out: MIC S. aureus ATCC 29213

Compound: Clc1ccc(-n2nnnc2C(Cl)(Cl)c2nnnn2-c2ccc(Cl)cc2)cc1 [NewCo001, Bis-(1-p-chlorobenzen-5-tetrazolyl)-dichloromethane]
MIC50 (S. aureus strains; 60 tested S. aureus strains): 4 microgram/milliliter
MIC90 (S. aureus strains; 60 tested S. aureus strains): 16 microgram/milliliter
Range MIC (highest) (S. aureus strains; 60 tested S. aureus strains): >32 microgram/milliliter
Range MIC (lowest) (S. aureus strains; 60 tested S. aureus strains): 1 microgram/milliliter
MIC S. aureus MW2 (S. aureus MW2): 32 micrograms per milliliter
MIC S. aureus N315 (S. aureus N315): 2 micrograms per milliliter
MIC S. aureus ATCC 29213 (S. aureus ATCC 29213; Table II, single strain): 16 micrograms per milliliter

Range MIC (highest) (S. aureus strains; 60 tested S. aureus strains): >32 microgram/milliliter
Range MIC (lowest) (S. aureus strains; 60 tested S. aureus strains): 0.5 microgram/milliliter
MIC50 (S. aureus strains; [2]): 32 µg/mL (≈ 79.7 µM)
MIC90 (S. aureus strains; [3]): > 32 µg/mL
MIC (S. aureus MW2): > 32 µg/mL
MIC (S. aureus N315): 4 µg/mL (≈ 9.97 µM)
MIC (S. aureus ATCC 29213; [4]): > 32 µg/mL
Compound: Cc1ccc(-n2nnnc2C(Cl)(Cl)c2nnnn2-c2ccc(C)cc2)cc1 [NewCo002, Bis-(1-p-tolyl-5-tetrazolyl)-dichloromethane]

Compound: Cc1ccccc1-n1nnnc1C(Cl)(Cl)c1nnnn1-c1ccccc1C [NewCo003, Bis-(1-o-tolyl-5-tetrazolyl)-dichloromethane]
Trend of dose-dependent efficacy (MRSA 2141; i.v., 0.05 to 5.0 mg/kg): no significant trend of dose-dependent efficacy was observed
Reduction of MRSA 2141 CFU in thigh muscle (MRSA 2141; single i.v. dose 0.05, 0.5 or 5.0 mg/kg one day after infection): Approximately 2 Log reduction
Range MIC (highest) (S. aureus strains; 60 tested S. aureus strains): 0.5 microgram/milliliter
Range MIC (lowest) (S. aureus strains; 60 tested S. aureus strains): 0.03 microgram/milliliter
MIC50 (S. aureus strains; [2]): 0.06 µg/mL (≈ 0.15 µM)
MIC90 (S. aureus strains; [3]): 0.12 µg/mL (≈ 0.299 µM)
Signs of adverse side effects during observation after injection [1]: no signs of adverse side effects were observed
MIC (S. aureus MW2): 0.06 µg/mL (≈ 0.15 µM)
MIC (S. aureus N315): 0.125 µg/mL (≈ 0.312 µM)
MIC (S. aureus ATCC 29213; [4]): 0.06 µg/mL (≈ 0.15 µM)
MIC (S. aureus ATCC 29213; ATCC29213, Table IV, some in duplicate, read-out: MIC S. aureus ATCC 29213): 0.19 µg/mL (≈ 0.474 µM)
MIC S. aureus ATCC 29213 (S. aureus ATCC 29213; Table IV, some in duplicate): 0.1 micrograms per milliliter

Compound: ClC(Cl)(c1nnnn1-c1ccccc1)c1nnnn1-c1ccccc1 [NewCo004, Bis-(1-benzene-5-tetrazolyl)-dichloromethane]
MIC50 (S. aureus strains; 60 tested S. aureus strains): 1 microgram/milliliter
MIC90 (S. aureus strains; 60 tested S. aureus strains): 2 microgram/milliliter
Range MIC (highest) (S. aureus strains; 60 tested S. aureus strains): 4 microgram/milliliter
Range MIC (lowest) (S. aureus strains; 60 tested S. aureus strains): 0.25 microgram/milliliter
MIC S. aureus MW2 (S. aureus MW2): 1 micrograms per milliliter
MIC S. aureus N315 (S. aureus N315): 0.25 micrograms per milliliter
MIC S. aureus ATCC 29213 (S. aureus ATCC 29213; Table II, single strain): 1 micrograms per milliliter

MIC (S. aureus ATCC 29213; [4]): 4 µg/mL (≈ 10.9 µM)
Compound: Cc1ccc(-n2nnnc2C(Cl)c2nnnn2-c2ccc(C)cc2)cc1 [NewCo005, Bis-(1-p-tolyl-5-tetrazolyl)-chloromethane]

Compound: COc1ccccc1-n1nnnc1C(Cl)(Cl)c1nnnn1-c1ccccc1OC [NewCo006, Bis-(1-o-methoxybenzene-5-tetrazolyl)-dichloromethane]
MIC S. aureus ATCC 29213 (S. aureus ATCC 29213; Table II, single strain): 4 micrograms per milliliter

Compound: COc1ccccc1-n1nnnc1C(Cl)(Cl)c1nnnn1-c1ccccc1OC [NewCo007, Bis-(1-o-methoxybenzene-5-tetrazolyl)-dichloromethane]
MIC S. aureus TTC03.0239 (S. aureus TTC03.0239): 1.56 micrograms per milliliter
MIC S. aureus TTC03.0236 (S. aureus TTC03.0236): 1.56 micrograms per milliliter
MIC S. aureus ATCC 29213 (S. aureus ATCC 29213; Table IV, some in duplicate): 1.56 micrograms per milliliter

Compound: Fc1ccccc1-n1nnnc1C(Cl)(Cl)c1nnnn1-c1ccccc1F [NewCo0018, Bis-(1-o-fluorobenzene-5-tetrazolyl)-dichloromethane]
MIC S. aureus TTC03.0236 (S. aureus TTC03.0236): 0.78 micrograms per milliliter
MIC S. aureus ATCC 29213 (S. aureus ATCC 29213; Table IV, some in duplicate): 1.56 micrograms per milliliter

Compound: COc1ccc(-n2nnnc2C(Cl)(Cl)c2nnnn2-c2ccc(OC)c(Cl)c2)cc1Cl [NewCo0021, Bis-(1-m-chloro-p-methoxybenzene-5-tetrazolyl)-dichloromethane]
MIC S. aureus TTC03.0239 (S. aureus TTC03.0239): 1.56 micrograms per milliliter
MIC S. aureus TTC03.0236 (S. aureus TTC03.0236): 0.78 micrograms per milliliter
MIC S. aureus ATCC 29213 (S. aureus ATCC 29213; Table IV, some in duplicate): 1.56 micrograms per milliliter

Compound: COc1ccc(Cl)cc1-n1nnnc1C(Cl)(Cl)c1nnnn1-c1cc(Cl)ccc1OC [NewCo0022]
MIC S. aureus TTC03.0239 (S. aureus TTC03.0239): 0.19 micrograms per milliliter
MIC S. aureus TTC03.0236 (S. aureus TTC03.0236): 0.1 micrograms per milliliter
MIC S. aureus ATCC 29213 (S. aureus ATCC 29213; Table IV, some in duplicate): ≦0.05 micrograms per milliliter

Compound: Clc1cccc(-n2nnnc2C(Cl)(Cl)c2nnnn2-c2cccc(Cl)c2Cl)c1Cl [NewCo0023, Bis-(1-o,m-dichlorobenzene-5-tetrazolyl)-dichloromethane]
MIC S. aureus TTC03.0239 (S. aureus TTC03.0239): 0.39 micrograms per milliliter
MIC S. aureus TTC03.0236 (S. aureus TTC03.0236): 0.19 micrograms per milliliter
MIC S. aureus ATCC 29213 (S. aureus ATCC 29213; Table IV, some in duplicate): 0.19 micrograms per milliliter

Compound: CN[C@H](CC(C)C)C(=O)N[C@H]1C(=O)N[C@@H](CC(N)=O)C(=O)N[C@H]2C(=O)N[C@H]3C(=O)N[C@H](C(=O)N[C@H](C(=O)O)c4cc(O)cc(O)c4-c4cc3ccc4O)[C@H](O)c3ccc(c(Cl)c3)Oc3cc2cc(c3O[C@@H]2O[C@H](CO)[C@@H](O)[C@H](O)[C@H]2O[C@H]2C[C@](C)(N)[C@H](O)[C@H](C)O2)Oc2ccc(cc2Cl)[C@H]1O [vancomycin, reference compound]
Reduction of MRSA 2141 CFU in thigh muscle (MRSA 2141; positive control, single i.v. dose 10 mg/kg): Over 1 Log reduction
Range MIC (highest) (S. aureus strains; 60 tested S. aureus strains): 4 microgram/milliliter
Range MIC (lowest) (S. aureus strains; 60 tested S. aureus strains): 0.12 microgram/milliliter
MIC50 (S. aureus strains; Staphylococcus aureus): 0.5 µg/mL (≈ 0.345 µM)
MIC90 (S. aureus strains; Staphylococcus aureus): 1 µg/mL (≈ 0.69 µM)
MIC (S. aureus ATCC 29213; ATCC29213, read-out: MIC S. aureus ATCC 29213, Table IV, some in duplicate): 1.56 µg/mL (≈ 1.08 µM)
MIC S. aureus ATCC 29213 (S. aureus ATCC 29213; Table IV, some in duplicate, listed as vancomycine): 0.78 micrograms per milliliter
